Measured values reported in patent US4362736A, “Guanidinothiazole compounds, and medical compositions containing them” (Yamanouchi Pharmaceutical Co., Ltd., priority 1979, dated 1982).
Structures can show the parent of a compound that is named as a salt.

Key:
Gastric acid secretion [1] = experiment: Gastric acid secretion in pylorus-ligated rats; format: in vivo, Male Wister rats; conditions: Rattus norvegicus, intraduodenal, 4 hrs., probit method, read-out: (B) Pylorus-ligated rats ED50
Protocol: Male Wister rats weighing about 200 g were deprived of food for 24 hrs. but allowed free access to water prior to the experiments in individual cages. […] Test compounds were intraduodenally given immediately after the ligation of pylorus. The animals were sacrificed 4 hrs. after drug administration and gastric contents were collected. […] The percent inhibition of gastric secretion by each dose of drugs was calculated from the acid outputs of control and of treated groups. ED50 values were determined by the probit method.

Gastric acid secretion [2] = experiment: Gastric acid secretion in anesthetized dogs (histamine-induced); format: in vivo, Mongrel dogs; conditions: Canis lupus familiaris, iv, histamine infusion 160 μg/Kg-hr, dose producing 50% inhibition of acid output
Protocol: Mongrel dogs weighing 8 to 15 Kg were deprived of food for 24 hrs. and anesthetized intravenously with pentobarbital (30 mg/Kg). […] The gastric juice was collected from the gastric cannula by gravity drainage every 15 min. Test compounds were given intravenously after gastric secretion induced by a continuous intravenous infusion of histamine (160 μg/Kg-hr) reached a steady state.

Acute toxicity in mice = conditions: mouse, in vivo, iv, 7 days observation, up and down method; read-out: (C) LD50 in mice
Protocol: Drugs were injected intravenously in male ICR mice weighing about 35 g at a rate of 0.1 ml/10 g/10 sec and the animals were kept under observation for 7 days. LD50 values were determined by the up and down method using 10 animals. The data are shown in Table I, under column entitled (C).

H2 -receptor = conditions: Ash and Schild; Black et al.; cited from earlier work

| Structure (SMILES) | ED50 (Gastric acid secretion [1]) [mg/kg] | ED50 (Gastric acid secretion [2]) [mg/kg] | LD50 at 168 h (Acute toxicity in mice) [mg/kg] | inhibition of histamine effects on gastric acid secretion and heart rate in isolated guinea pig atrium (H2 -receptor) |
| --- | --- | --- | --- | --- |
| N#CNC(=N)CCSCc1csc(NC(=N)N)n1 [Example 3, N-cyano-3-[(2-guanidinothiazol-4-yl)methylthio]propionamidine] | 13.8 | 0.0183 ± 0.0007 | 147 | – |
| NC(=O)N=C(N)CCSCc1csc(N=C(N)N)n1 [Example 9, N-carbamoyl-3-[(2-guanidinothiazol-4-yl)methylthio]propionamidine.di-hydrochloride] | 12.7 | 0.0064 ± 0.0006 | 97.8 | – |
| COc1ccc(CN(CCN(C)C)c2ccccn2)cc1 [mepyramine] | – | – | – | not inhibited |
| C/N=C(\S)NCCSCc1[nH]cnc1C [metiamide] | – | – | – | antagonized |
